Measured values from patent publication US9221827B2, “Antimicrobial compounds and methods of making and using the same” (Melinta Therapeutics, Inc., priority 2011, dated 2015).

Test system: Escherichia coli strain ATCC25922
Test: standard microdilution assay to determine minimum inhibitory concentrations (MICs)
Type: cell-based
How it was run: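 Broth microdilution per CLSI (M7-A8/M100-S20), 100 μl final volume, with reference-strain quality control; MIC is the lowest inhibitory concentration. Scored "+"/"−" against a 16 micrograms/ml cutoff, "N/A" where unavailable.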

[1] = Escherichia coli strain ATCC25922, microdilution
[2] = Escherichia coli strain ATCC25922, standard microdilution assay

| Structure (SMILES) | E. coli ATCC25922 MIC [1] | E. coli ATCC25922 MIC [2] |
| --- | --- | --- |
| CC(N)CCCc1cc(OC(F)F)c(F)c(-c2cc3cn(-c4ccc(CNCCCNC(=N)N)cc4)c(=O)nc3[nH]2)c1 (stereo not shown) [Compound 297] | + (a “+” indicates that the compound has an MIC value of 16 micrograms/ml or less) |  |
| C[C@H](NCCCNC(=N)N)c1ccc(-n2cc3cc(-c4cc(COCCN)cc(OC(F)(F)F)c4)[nH]c3nc2=O)cc1 [Compound 70] | + (a “+” indicates that the compound has an MIC value of 16 micrograms/ml or less) |  |
| C[C@H](N)CCCc1cc(CC(C)(C)C)c(F)c(-c2cc3cn(-c4ccc([C@H](C)NCCCNC(=N)N)cc4)c(=O)nc3[nH]2)c1 [Compound 458] |  | + (a “+” indicates that the compound has an MIC value of 16 micrograms/ml or less) |
| CC(N)CCCc1cc(OC(F)(F)F)c(Cl)c(-c2cc3cn(-c4ccc(CNCCCNC(=N)N)cc4)c(=O)nc3[nH]2)c1 (stereo not shown) [Compound 281] | + (a “+” indicates that the compound has an MIC value of 16 micrograms/ml or less) |  |
| C[C@H](N)CCCc1cc(OC(F)(F)F)cc(-c2cc3cn(-c4ccc([C@H](C)NCCCNC(=N)N)cc4)c(=O)nc3[nH]2)c1 [Compound 230] | + (a “+” indicates that the compound has an MIC value of 16 micrograms/ml or less) |  |
| CCC(N)COC(C)c1cc(-c2cc3cn(-c4ccc([C@H](C)NCCCNC(=N)N)cc4)c(=O)nc3[nH]2)cc(C(F)(F)F)c1 (stereo partly shown) [Compound 480] | + (a “+” indicates that the compound has an MIC value of 16 micrograms/ml or less) |  |
| CC(C)(N)CCCc1cc(OC(F)(F)F)cc(-c2cc3cn(-c4ccc(CNCCCNC(=N)N)cc4)c(=O)nc3[nH]2)c1 [Compound 131] | + (a “+” indicates that the compound has an MIC value of 16 micrograms/ml or less) |  |
| Cc1c(C#N)cc(CCCCN)cc1-c1cc2cn(-c3ccc(CNCCCNC(=N)N)cc3)c(=O)nc2[nH]1 [Compound 134] | + (a “+” indicates that the compound has an MIC value of 16 micrograms/ml or less) |  |
| Cc1ccc(CCCCN)cc1-c1cc2cn(-c3ccc(CNCCCNC(=N)N)cc3)c(=O)nc2[nH]1 [Compound 57] | + (a “+” indicates that the compound has an MIC value of 16 micrograms/ml or less) |  |
| CC(C)(N)CCCc1cc(SC(F)(F)F)cc(-c2cc3cn(-c4ccc(CNCCCNC(=N)N)cc4)c(=O)nc3[nH]2)c1 [Compound 303] | + (a “+” indicates that the compound has an MIC value of 16 micrograms/ml or less) |  |
| C[C@H](NCCCNC(=N)N)c1ccc(-n2cc3cc(-c4cc(C[C@H]5C[C@H](N)C5)cc(C(F)(F)F)c4)[nH]c3nc2=O)cc1 [Compound 396] |  | + (a “+” indicates that the compound has an MIC value of 16 micrograms/ml or less) |
| CS(=O)(=O)c1cc(CCCCN)cc(-c2cc3cn(-c4ccc(CNCCCNC(=N)N)cc4)c(=O)nc3[nH]2)c1 [Compound 33] | + (a “+” indicates that the compound has an MIC value of 16 micrograms/ml or less) |  |
| N=C(N)NCCCNCc1ccc(-n2cc3cc(-c4cc(Cl)c(F)c(CCCCN)c4)[nH]c3nc2=O)cc1 [Compound 267] | + (a “+” indicates that the compound has an MIC value of 16 micrograms/ml or less) |  |
| N=C(N)NCCCNCc1ccc(-n2cc3cc(-c4cc(CCCCN)cc(-c5cccnc5)c4)[nH]c3nc2=O)cc1 [Compound 61] | + (a “+” indicates that the compound has an MIC value of 16 micrograms/ml or less) |  |
| CC(CN)CN1CC(NC(=O)Nc2nc(=O)c(-c3ccc(CNCCCNC(=N)N)cc3)c[nH]2)CC1COCc1c(Cl)cccc1Cl (stereo not shown) [Compound 150] | − (a “−” indicates that the compound has an MIC value greater than 16 micrograms/ml) |  |
| CC(=O)NCCCNCc1ccc(-n2cc3cc(-c4cc(CCC[C@H](C)N)cc(Cl)c4F)[nH]c3nc2=O)cc1 [Compound 386] |  | − (a “−” indicates that the compound has an MIC value greater than 16 micrograms/ml) |

| Structure (SMILES) | E. coli ATCC25922 MIC [1] | E. coli ATCC25922 MIC [2] |
| --- | --- | --- |
| CCc1cc(CCCCN)cc(-c2cc3cn(-c4ccc(CNCCCNC(=N)N)cc4)c(=O)nc3[nH]2)c1Cl [Compound 217] | + (a “+” indicates that the compound has an MIC value of 16 micrograms/ml or less) |  |
| NCCCCc1cc(OC(F)(F)F)cc(-c2cc3cn(-c4ccc(CNCCCN/C(N)=N\CCCF)cc4)c(=O)nc3[nH]2)c1 [Compound 47] | + (a “+” indicates that the compound has an MIC value of 16 micrograms/ml or less) |  |
| CS(=O)(=O)CCc1cc(CCCCN)cc(-c2cc3cn(-c4ccc(CNCCCNC(=N)N)cc4)c(=O)nc3[nH]2)c1 [Compound 22] | + (a “+” indicates that the compound has an MIC value of 16 micrograms/ml or less) |  |
| CC(CCCc1cc(-c2cc3cn(-c4ccc(C(C)NCCCNC(=N)N)cc4)c(=O)nc3[nH]2)cc(C(F)(F)F)c1)NC(=N)N (stereo not shown) [Compound 276] | + (a “+” indicates that the compound has an MIC value of 16 micrograms/ml or less) |  |
| C=CC[C@H](NCCCNC(=N)N)c1ccc(-n2cc3cc(-c4cc(CCC[C@H](C)N)cc(Cl)c4F)[nH]c3nc2=O)cc1 [Compound 472] | + (a “+” indicates that the compound has an MIC value of 16 micrograms/ml or less) |  |
| COC(=O)CC(NCCCNC(=N)N)c1ccc(-n2cc3cc(-c4cc(CCCC(C)N)cc(SC(F)(F)F)c4)[nH]c3nc2=O)cc1 (stereo not shown) [Compound 491] | + (a “+” indicates that the compound has an MIC value of 16 micrograms/ml or less) |  |
| CC(C)c1cc(CCC(C)(C)CN)cc(-c2cc3cn(-c4ccc(CNCCCNC(=N)N)cc4)c(=O)nc3[nH]2)c1 [Compound 97] | + (a “+” indicates that the compound has an MIC value of 16 micrograms/ml or less) |  |
| C=C[C@H](NCCCNC(=N)N)c1ccc(-n2cc3cc(-c4cc(CCC[C@H](C)N)cc(Cl)c4F)[nH]c3nc2=O)cc1 [Compound 475] | + (a “+” indicates that the compound has an MIC value of 16 micrograms/ml or less) |  |
| CC(N)CC=Cc1cc(Cl)c(F)c(-c2cc3cn(-c4ccc(C(C)NCCCNC(=N)N)cc4)c(=O)nc3[nH]2)c1 (stereo not shown) [Compound 343] |  | + (a “+” indicates that the compound has an MIC value of 16 micrograms/ml or less) |
| CCCOc1cc(CCCCN)cc(-c2cc3cn(-c4ccc(CNCCCNC(=N)N)cc4)c(=O)nc3[nH]2)c1C(F)(F)F [Compound 251] | + (a “+” indicates that the compound has an MIC value of 16 micrograms/ml or less) |  |
| CC(CCN)Cc1cc(-c2cc3cn(-c4ccc(CNCCCNC(=N)N)cc4)c(=O)nc3[nH]2)cc(F)c1Cl (stereo not shown) [Compound 129] | + (a “+” indicates that the compound has an MIC value of 16 micrograms/ml or less) |  |
| C[C@H](N)CCCc1cc(-c2cc3cn(-c4ccc([C@H](C)NCCCNC(=N)N)cc4)c(=O)nc3[nH]2)cc(Cl)n1 [Compound 428] |  | + (a “+” indicates that the compound has an MIC value of 16 micrograms/ml or less) |
| CC(CN)SCc1cc(SC(F)(F)F)cc(-c2cc3cn(-c4ccc(C(C)NCCCNC(=N)N)cc4)c(=O)nc3[nH]2)c1 (stereo not shown) [Compound 337] |  | + (a “+” indicates that the compound has an MIC value of 16 micrograms/ml or less) |
| N=C(N)NCCCNCc1ccc(-c2c[nH]c(NC(=O)Nc3ccc(C4CC4)cc3OCCCN)nc2=O)cc1 [Compound 184] | + (a “+” indicates that the compound has an MIC value of 16 micrograms/ml or less) |  |
| CC(N)CCCc1cc(Cl)c(F)c(-c2cc3cn(-c4ccc(C(CCO)NCCCNC(=N)N)cc4)c(=O)nc3[nH]2)c1 (stereo not shown) [Compound 506] | + (a “+” indicates that the compound has an MIC value of 16 micrograms/ml or less) |  |
